This is an account of results in US9981983B2, “Thienopyranones as kinase inhibitors” (SignalRx Pharmaceuticals, Inc., priority 2008, dated 2018).

The target in one assay is mTOR (Homo sapiens, UniProt P42345). Kind of assay: mTOR inhibition. Format: biochemical.
Assay [1] concerns pAKT serine 473 level in PC3 cells. In words: pAKT status in IGF-1 stimulated PC3 cells (Ser473 pAKT ELISA). The assay is classed as cell-based. As to conditions: Homo sapiens, PC-3; PC3 cells; read-out: IC50 pAKT (Pathway Inhibition). The procedure:
PC3 cells were obtained from the American Type Culture Collection (ATCC, Manassas, Va., Cat.# CRL-1435). Two million cells from the prostate cancer line PC3 were placed into 6 cm culture dishes and allowed to grow in complete RPMI 1640 media (Invitrogen, Carlsbad, Calif., Cat.#22400-105) with 10% fetal bovine serum (Invitrogen, Carlsbad, Calif., Cat.#10438-026). After this time period the cells were serum starved for 5 hours followed by application of the test compound. Test compound was added as a DMSO (dimethyl sulfoxide) solution such that the final DMSO concentration in the cell media was less than or equal to 0.2% by volume After 30 minutes of exposure the growth factor stimulant, human IGF-1 (PeproTech, Inc., Rocky Hill, N.J., Cat.#100-11), was added to a final concentration of 0.1 μg/ml in each well. After 30 minutes of IGF-1 exposure, cells were removed from the media and cell lysates were prepared using RIPA Lysis buffer (Upstate, Lake Placid, N.Y., Cat.#20-188), keeping on ice. The pAKT serine 473 level was measured in duplicate samples of the cell lysates using commercially available assays such as the Pathscan® Sandwich ELISA kit for Ser473 pAKT (Cell Signaling, Danvers, Mass., Cat.#7160). A SpectraMax Plus spectrophotometric plate reader (Molecular Devices, Sunnydale, Calif.) was used to measure the optical density signal for pAKT at 450 nm (OD450 nm). The pAKT OD450 nm readings were normalized by total protein amount in the cell lysates determined by standard methods.
Concentrations of test compounds required to inhibit IGF stimulated pAKT levels to 50% of maximum levels in PC3 cells (termed DM50 for decreased maximum 50%) were calculated by inputting the dose responses in the software package GraphPad Prism4 (GraphPad Software, Inc., San Diego, Calif.).
By these methods a number of compounds of the invention were evaluated and the concentration needed to reduce the detectable pAKT to 50% of the maximal uninhibited signal was calculated. These values (in μMolar units) are listed in Table 8 under the column heading PC3 pAKT IC50 (μMolar).
A general note: ELISA stands for enzyme-linked immunosorbent assay.

For a further assay, the system named is PC3 cells. In words: PC3 prostate cancer cell proliferation (WST). As to conditions: Homo sapiens, PC-3; PC3 cells; read-out: PC3 IC50 Proliferation. The assay is classed as cell-based.
The test system of assay [2] is 786-0 renal cell carcinoma xenograft. In words: 786-0 renal cell carcinoma xenograft mouse model. To be noted: 25 mg/kg, ip, 3×/wk for 4 weeks. Format: in vivo, nude mice. As to the method: To determine if Cpd 9 has anti-tumor effects, an in vivo study was conducted in a 786-0 renal cell carcinoma xenograft model, 786-0 cells (2×10^6) were inoculated subcutaneously into nude mice in the flank area and tumor growth was monitored with calipers via external measurements. Tumor volume was calculated using the formula volume=(length×width^2)/2. When the average tumor volume reached 400 mm^3, mice were randomly divided into 2 groups and treated with either DMSO (control) or Cpd 9 (25 mg/kg, ip) three times weekly (M, W, F) for two weeks.
To determine if Cpd 28 has anti-tumor effects, an in vivo study was conducted in a 786-0 renal cell carcinoma xenograft model, 786-0 cells (2×10^6) were inoculated subcutaneously into nude mice in the flank area and tumor growth was monitored with calipers via external measurements. Tumor volume was calculated using the formula volume=(length×width^2)/2. Treatment was started when tumors reached an average volume of 300 mm^3. […] DMSO was used as control since this was the vehicle the compounds were dissolved in. Tumor size was monitored twice weekly and body weight was monitored once weekly. Means and standard deviations were calculated and the Student t test method was used for statistical comparisons.

For a further assay, the system named is PI-3 kinases. To be noted: Vlahos et al. J. Biol. Chem. 1994; cited from earlier work.

As for `O=c1cc(N2CCOCC2)oc2c(-c3ccccc3)cccc12` [LY294002, 2-morpholino-8-phenyl-4H-chromen-4-one, reference compound], the IC50 was 1060 nM at mTOR, 1300 nM in assay [1], 7500 to 12100 nM with PC3 cells and 1400 nM in the assay on PI-3 kinases. In addition, in assay [2], the “tumor growth inhibition compared to control” value worked out at 54%.
